Experiment [1] has as its system Glioma PDCs (Glioblastoma Grade IV). Kind of experiment: Anti-proliferation assay (CellTiterGlo, 72 h) on glioma PDCs. In kind it is cell-based, human. The settings on record: drug alone @ 10 uM; for inhibition at 10 µM: Homo sapiens. As for the experimental part: The outermost rows/columns of the plates were filled with PBS (pH 7.4) to avoid an edge-effect and were considered as blanks. Standardized aqueous extracts identified in Table 2 were prepared in main stock solutions by dissolving 1 mg of extract in 1 ml PBS (phosphate-buffered saline, pH 7.4). […] The plate was incubated in a CO2 incubator for 0/N incubation for 24 hours. […] Once extracts were added to incubated cells and mixed gently, the plate was given a brief spin and incubated in the CO2 incubator for 72 hours. The plate was removed from the incubator and 10 ul of detection reagent (CellTiterGlo®; Promega Corporation, Wisconsin, USA) added to each well of the 384 well plate. […] The assay described above is a two-dimensional (2D) assay.
A general note: Cellular ATP, detected with luciferase, serves as a proxy for viable cell number.

For experiment [2], the system named is Non-small cell lung cancer cells (cell line NCI-H-358). Kind of experiment: Anti-proliferation assay on non-small cell lung cancer cells. The settings on record: Homo sapiens, NCI-H358. It is filed as cell-based. The procedure:
Anti-proliferative and anti-cancer activity of extracts of this invention on non-small cell lung cancer cells and colon cancer cells were assessed generally as described in Example I and are discussed below. […] As noted throughout this application, the below data is intended to describe the present invention but not to be limiting.
Non-small cell lung cancer cells (cell line NCI-H-358) and colon cancer cells (cell line HT-29) were plated in a 384-well plate in amounts of about 1.25 k cells/well. […] Wells with untreated cells and with plain media were also included as controls. Plates passed quality control parameters.

For experiment [3], the system named is TN breast cancer PDCs SB 30750. In words: Anti-proliferation assay on TN breast cancer PDCs SB 30750. It is filed as cell-based. The settings on record: Homo sapiens. The procedure:
In this Example, AyuFlex®, Capros®, and Ayuric® were each applied to different PDCs than previous tests, TN breast cancer PDCs SB 30750, and tested via the anti-proliferation assay described above. […] Incubation times were 72 hours.

Data on one molecule can be found in patent US20220233624A9, “ANTI-CANCER AND ANTI-PROLIFERATIVE COMPOSITIONS, AND METHODS FOR THEIR USE IN TREATING CANCER” (Natreon, Inc., priority 2020, published 2022).

Where “and” joins values, the source holds several entries; their conditions need not be identical. Equal entries are not always repeated. Where two headings read alike, the source gives them in different places.

Turning to `COc1cccc2c1C(=O)c1c(O)c3c(c(O)c1C2=O)C[C@@](O)(C(=O)CO)C[C@@H]3O[C@H]1C[C@H](N)[C@H](O)[C@H](C)O1` [Doxorubicin, doxorubicin], the inhibition at 10 µM in experiment [1] (read-out: % Inhibition Avg) turned out to be 82%; in experiment [1] (read-out: % Inhibition, single replicates), 81%; in experiment [2] (drug 10 uM, read-out: inhibition of proliferation) it was 78%; in experiment [2] (plate control @ 10 uM, read-out: % Inhibition Average (SD)) it was 78%; in experiment [2] (plate control @ 10 uM, read-out: % Inhibition n1), 79%; in experiment [2] (plate control @ 10 uM, read-out: % Inhibition n2) it was 77%. Besides, the inhibition at 10 µM in experiment [2] (plate control @ 10 uM, read-out: % Inhibition n3) is 77%; in experiment [3] (10 uM, 72 h, read-out: % Inhibition Avg) it was 68%; in experiment [3] (10 uM, 72 h, read-out: % Inhibition n1), 78%; in experiment [3] (10 uM, 72 h, read-out: % Inhibition n2) it was 68%; in experiment [3] (10 uM, 72 h, read-out: % Inhibition n3) it was 58%; in experiment [3] (read-out: % Inhibition Average (SD)), 68%. The inhibition at 10 µM came to 78% in experiment [3] (read-out: % Inhibition n1), 68% in experiment [3] (read-out: % Inhibition n2) and 58% in experiment [3] (read-out: % Inhibition n3). Also, the “% Inhibition Avg” value in experiment [1] (10 µM) was 97%. The “% Inhibition, single replicates” value in experiment [1] (10 µM) was 83% and 98% and 97% and 96%.
